Reference: patent US20070167462A1, “Fungicidal mixtures” (priority 2004, published 2007)

Test system: Corticium sasakii
Assay: Activity against sheath blight on rice caused by Corticium sasakii (protective spray, rice plants cultivar Tai-Nong 67)
Format: in vivo
Settings: untreated control 90% infection
Description: The active compounds, separately or jointly, were prepared as a stock solution comprising 0.25% by weight of active compound in acetone or DMSO. 1% by weight of the emulsifier Uniperol® EL (wetting agent having emulsifying and dispersing action based on ethoxylated alkylphenols) was added to this solution, and the mixture was diluted with water accordingly to the desired concentration.
Use example—Activity against sheath blight on rice caused by Corticium sasakii
Pots of rice plants of the cultivar “Tai-Nong 67” were sprayed to runoff point with an aqueous suspension having the concentration of active compound stated below. The next day, oat grains infected with Corticium sasakii were planted in the pots (in each case 5 grains per pot). The plants were then placed in a chamber at 26° C. and maximum atmospheric humidity. After […], the sheath blight on the untreated but infected control plants had developed to such an extent that the infection could be determined visually in %.
Evaluation is carried out by determining the infected leaf areas in percent. These percentages were converted into efficacies.
The efficacy (E) is calculated as follows using Abbot's formula: E=(1−αβ)·100 • α corresponds to the fungal infection of the treated plants in % and • β corresponds to the fungal infection of the untreated (control) plants in %
An efficacy of 0 means that the infection level of the treated plants corresponds to that of the untreated control plants; an efficacy of 100 means that the treated plants are not infected.
The expected efficacies of the mixtures of active compounds are determined using Colby's formula [R. S. Colby, Weeds, 15, 20-22 (1967)] and are compared with the observed efficacies.
Colby's formula: E=x+y−x·y/100 • E expected efficacy, expressed in % of the untreated control, when using the mixture of the active compounds A and B at the concentrations a and b • x efficacy, expressed in % of the untreated control, when using the active compound A at the concentration a
y efficacy, expressed in % of the untreated control, when using the active compound B at the concentration b

[1] = 4 ppm active compound in the spray liquor
[2] = 16 ppm active compound in the spray liquor

| SMILES | Efficacy in % of the untreated control [1] [%] | Efficacy in % of the untreated control [2] [%] |
| --- | --- | --- |
| CC(C)Oc1cccc(NC(=O)c2ccccc2C(F)(F)F)c1 [II (flutolanil), N-(3-isopropoxyphenyl)-2-trifluoromethylbenzamide] | 0 | 31 |
| CC1CCN(c2c(-c3c(F)cc(F)cc3F)c(Cl)nc3ncnn23)CC1 [compound I, 5-chloro-7-(4-methylpiperidin-1-yl)-6-(2,4,6-trifluorophenyl)-[1,2,4]tri-azolo[1,5-a]pyrimidine] | 31 | 65 |
